# Test results reported in US7238716B2, “Alkanoic acid derivatives process for their production and use thereof” (Takeda Pharmaceuticals Company Limited, priority 2000, dated 2007).
row,SMILES,melting point
1,Cc1oc(-c2ccccc2)nc1COc1ccc(COc2ncccc2CC(=O)[O-])cc1.[Li+],207 to 209 °C
2,Cc1oc(-c2ccccc2)nc1COc1ccc(COc2ncccc2CC(=O)[O-])cc1.[K+],157 to 159 °C
3,"CCOC(=O)CCc1cccc(OCc2ccc(OCc3nc(-c4ccccc4)oc3C)cc2)c1 [Example 2, ethyl 3-[3-[4-[(5-methyl-2-phenyl-4-oxazolyl)methoxy]benzyloxy]phenyl]propionate]",90 to 91 °C
4,"Cc1oc(-c2ccccc2)nc1COc1ccc(COc2cccc(CCC(=O)O)c2)cc1 [Example 3, 3-[3-[4-[(5-methyl-2-phenyl-4-oxazolyl)methoxy]benzyloxy]phenyl]propionic acid]",157 to 158 °C
5,"CCOc1ccc(OCc2ccc(OCc3nc(-c4ccccc4)oc3C)cc2)cc1CC(=O)OC [Example 4, methyl-2-[2-ethoxy-5-[4-[(5-methyl-2-phenyl-4-oxazolyl)methoxy]benzyloxy]phenyl]acetate]",82 to 83 °C
6,"CCOc1ccc(OCc2ccc(OCc3nc(-c4ccccc4)oc3C)cc2)cc1CC(=O)O [Example 5, 2-[2-ethoxy-5-[4-[(5-methyl-2-phenyl-4-oxazolyl)methoxy]benzyloxy]phenyl]acetic acid]",122 to 123 °C
7,"COC(=O)Cc1ccc(OCc2ccc(OCc3nc(-c4ccccc4)oc3C)cc2)cc1 [Example 8, methyl 2-[4-[4-[(5-methyl-2-phenyl-4-oxazolyl)methoxy]benzyloxy]phenyl]acetate]",93 to 94 °C
8,"Cc1oc(-c2ccccc2)nc1COc1ccc(COc2ccc(CC(=O)O)cc2)cc1 [Example 9, 2-[4-[4-[(5-methyl-2-phenyl-4-oxazolyl)methoxy]benzyloxy]phenyl]acetic acid]",166 to 167 °C
9,"Cc1oc(-c2ccccc2)nc1COc1ccc(COc2ccccc2CCC(=O)O)cc1 [Example 13, 3-[2-[4-[(5-methyl-2-phenyl-4-oxazolyl)methoxy]benzyloxy]phenyl]propionic acid]",98 to 99 °C
10,"COC(=O)Cc1cc(C)ccc1OCc1ccc(OCc2nc(-c3ccccc3)oc2C)cc1 [Example 14, methyl 2-[5-methyl-2-[4-[(5-methyl-2-phenyl-4-oxazolyl)methoxy]benzyloxy]phenyl]acetate]",80 to 81 °C
11,"Cc1oc(-c2ccccc2)nc1COc1ccc(COc2ccc(O)cc2CC(=O)O)cc1 [Example 16, 2-[5-hydroxy-2-[4-[(5-methyl-2-phenyl-4-oxazolyl)methoxy]benzyloxy]phenyl]acetic acid]",194 to 195 °C
12,"COC(=O)Cc1cc(Br)ccc1OCc1ccc(OCc2nc(-c3ccccc3)oc2C)cc1 [Example 19, methyl 2-[5-bromo-2-[4-[(5-methyl-2-phenyl-4-oxazolyl)methoxy]benzyloxy]phenyl]acetate]",100 to 101 °C
13,"Cc1oc(-c2ccccc2)nc1COc1ccc(COc2ccc(Br)cc2CC(=O)O)cc1 [Example 20, 2-[5-bromo-2-[4-[(5-methyl-2-phenyl-4-oxazolyl)methoxy]benzyloxy]phenyl]acetic acid]",162 to 163 °C
14,"COC(=O)Cc1cc(-c2ccccc2)ccc1OCc1ccc(OCc2nc(-c3ccccc3)oc2C)cc1 [Example 21, methyl 2-[2-[4-[(5-methyl-2-phenyl-4-oxazolyl)methoxy]benzyloxy]-5-phenylphenyl]acetate]",111 to 112 °C
15,"Cc1oc(-c2ccccc2)nc1COc1ccc(COc2ccc(-c3ccccc3)cc2CC(=O)O)cc1 [Example 22, 2-[2-[4-[(5-methyl-2-phenyl-4-oxazolyl)methoxy]benzyloxy]-5-phenylphenyl]acetic acid]",102 to 103 °C
16,"COC(=O)Cc1cc(OC)ccc1OCc1ccc(OCc2nc(-c3ccccc3)oc2C)cc1 [Example 23, methyl 2-[5-methoxy-2-[4-[(5-methyl-2-phenyl-4-oxazolyl)methoxy]benzyloxy]phenyl]acetate]",160 to 161 °C
17,"Cc1oc(-c2ccccc2)nc1COc1ccc(COc2ccc(OCc3ccccc3)cc2CC(=O)O)cc1 [Example 27, 2-[5-benzyloxy-2-[4-[(5-methyl-2-phenyl-4-oxazolyl)methoxy]benzyloxy]phenyl]acetic acid]",140 to 141 °C
18,"Cc1oc(-c2ccccc2)nc1COc1cccc(COc2ccccc2CC(=O)O)c1 [Example 31, 2-[2-[3-[(5-methyl-2-phenyl-4-oxazolyl)methoxy]benzyloxy]phenyl]acetic acid]",117 to 118 °C
19,"CCOc1ccc(OCc2cccc(OCc3nc(-c4ccccc4)oc3C)c2)cc1CCC(=O)O [Example 33, 3-[2-ethoxy-5-[3-[(5-methyl-2-phenyl-4-oxazolyl)methoxy]benzyloxy]phenyl]propionic acid]",136 to 137 °C
20,"Cc1oc(-c2ccccc2)nc1COc1ccccc1COc1cccc(CC(=O)O)c1 [Example 34, 2-[3-[2-[(5-methyl-2-phenyl-4-oxazolyl)methoxy]benzyloxy]phenyl]acetic acid]",104 to 105 °C
21,"CCOc1ccc(OCc2ccccc2OCc2nc(-c3ccccc3)oc2C)cc1CCC(=O)O [Example 35, 3-[2-ethoxy-5-[2-[(5-methyl-2-phenyl-4-oxazolyl)methoxy]benzyloxy]phenyl]propionic acid]",146 to 147 °C
22,"Cc1oc(-c2ccccc2)nc1COc1ccc(COc2cncc(CC(=O)O)c2)cc1 [Example 38, 2-[5-[4-[(5-methyl-2-phenyl-4-oxazolyl)methoxy]benzyloxy]-3-pyridyl]acetic acid]",139 to 140 °C
23,"Cc1oc(-c2ccccc2)nc1COc1ccc(COc2ccc3ccccc3c2CC(=O)O)cc1 [Example 39, 2-[2-[4-[(5-methyl-2-phenyl-4-oxazolyl)methoxy]benzyloxy]-1-naphthyl]acetic acid]",187 to 188 °C
24,"COC(=O)Cc1ccccc1OCc1cncc(OCc2nc(-c3ccccc3)oc2C)c1 [Example 42, methyl 2-[2-[[5-[(5-methyl-2-phenyl-4-oxazolyl)methoxy]-3-pyridyl]methoxy]phenyl]acetate]",77 to 78 °C
25,"Cc1oc(-c2ccccc2)nc1COc1cncc(COc2ccccc2CC(=O)O)c1 [Example 43, 2-[2-[[5-[(5-methyl-2-phenyl-4-oxazolyl)methoxy]-3-pyridyl]methoxy]phenyl]acetic acid]",207 to 208 °C
26,"CCOC(=O)CCc1ccc(OCc2ccc(OCc3nc(-c4ccccc4)oc3C)cc2)cc1 [Example 44, ethyl 3-[4-[4-[(5-methyl-2-phenyl-4-oxazolyl)methoxy]benzyloxy]phenyl]propionate]",105 to 106 °C
27,"Cc1oc(-c2ccccc2)nc1COc1ccc(COc2ccc(CCC(=O)O)cc2)cc1 [Example 45, 3-[4-[4-[(5-methyl-2-phenyl-4-oxazolyl)methoxy]benzyloxy]phenyl]propionic acid]",177 to 178 °C
28,"CCOC(=O)CCc1c(OCc2ccc(OCc3nc(-c4ccccc4)oc3C)cc2)ccc2ccccc12 [Example 46, ethyl 3-[2-[4-[(5-methyl-2-phenyl-4-oxazolyl)methoxy]benzyloxy]-1-naphthyl]propionate]",86 to 87 °C
29,"Cc1oc(-c2ccccc2)nc1COc1ccc(COc2ccc3ccccc3c2CCC(=O)O)cc1 [Example 47, 3-[2-[4-[(5-methyl-2-phenyl-4-oxazolyl)methoxy]benzyloxy]-1-naphthyl]propionic acid]",161 to 162 °C
